Assay results from paper PMC10004634 (PLOS ONE, 2023).

Assays:
U-2932 cells = test: SILAC phosphoproteomic analysis
Experimental: For differential SILAC encoding, both cells were grown in arginine- and lysine-deficient culture medium containing light (Arg0/Lys0) or heavy (Arg10/Lys8) isotopic forms of L-arginine and L-lysine (SILAC medium). […] For mass spectrometric analysis, phosphopeptide-enriched samples were loaded onto a reversed phase analytical column, resolved by an acetonitrile gradient using a nanoflow HPLC system and directly electrosprayed via a nanoelectrospray ion source into an LTQ-Orbitrap Velos mass spectrometer (Thermo Fisher Scientific). […] A false discovery rate (FDR) of 0.01 was selected for protein and peptide identification, and a posterior error probability of ≤0.1 for each peptide-to-spectral match was required. The resulting list of phosphosites exported from the MaxQuant software was filtered for class-I sites (only serine, threonine, or tyrosine assignments with a localization probability of ≥0.75) [33] and used for all subsequent biostatistical analysis. […] Gaussian regression analysis on the histogram plot of these log2-transformed ratios was performed using Sigmaplot (version 10.0; Systat Software Inc.). The obtained values for the mean and standard deviation across the whole quantitative dataset were used to determine thresholds for significant regulation of at least ±2.5 σ. […] Furthermore, only phosphosites conforming to this criterion and showing consistent regulation in both biological replicates were considered as regulated.

RIPK2 = RIPK2 (Homo sapiens, UniProt O43353); test: KINOMEscan binding assay; conditions: 300 nM; read-out: inhibition of kinase binding (KINOMEscan)
Chain of RIPK2 (O43353 whole entry): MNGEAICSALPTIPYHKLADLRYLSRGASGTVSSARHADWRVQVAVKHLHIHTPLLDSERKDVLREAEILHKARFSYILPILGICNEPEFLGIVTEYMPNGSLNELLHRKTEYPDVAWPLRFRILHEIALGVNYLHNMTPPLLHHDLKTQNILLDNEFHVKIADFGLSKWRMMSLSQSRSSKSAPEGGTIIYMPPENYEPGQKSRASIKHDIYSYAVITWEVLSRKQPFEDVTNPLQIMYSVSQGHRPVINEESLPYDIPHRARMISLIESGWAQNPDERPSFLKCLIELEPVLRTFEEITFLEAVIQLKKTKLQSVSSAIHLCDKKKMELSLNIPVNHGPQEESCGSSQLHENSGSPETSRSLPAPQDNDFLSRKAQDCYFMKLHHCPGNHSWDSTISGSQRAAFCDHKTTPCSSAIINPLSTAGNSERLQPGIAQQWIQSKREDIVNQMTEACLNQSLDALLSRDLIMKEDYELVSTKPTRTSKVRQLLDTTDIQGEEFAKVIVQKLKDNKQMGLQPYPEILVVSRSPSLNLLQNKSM

Structure (SMILES): CC#CC(=O)N1CC[C@@H](n2c(=O)n(-c3ccc(Oc4ccccc4)cc3)c3c(N)ncnc32)C1 [Tirabrutinib]
- number of downregulated (suppressed) phosphorylation sites (U-2932 cells; 1 μM, 1 h, ratio <0.664): 30
- number of upregulated (induced) phosphorylation sites (U-2932 cells; 1 μM, 1 h, ratio >1.506): four
- Tirabrutinib/ctrl. rep. 1 (U-2932 cells; AKT1S1 S88): 1.16
- Tirabrutinib/ctrl. rep. 2 (U-2932 cells; AKT1S1 S88): 1.03
- Tirabrutinib/ctrl. rep. 1 (U-2932 cells; AKT1S1 S183): 0.86
- Tirabrutinib/ctrl. rep. 2 (U-2932 cells; AKT1S1 S183): 0.93
- Tirabrutinib/ctrl. rep. 2 (U-2932 cells; AKT1S1 T97): 0.84
- Tirabrutinib/ctrl. rep. 1 (U-2932 cells; AKT1S1 T246): 0.84
- Tirabrutinib/ctrl. rep. 2 (U-2932 cells; AKT1S1 T246): 0.87
- Tirabrutinib/ctrl. rep. 2 (U-2932 cells; AKT1 S124): 0.96
- Tirabrutinib/ctrl. rep. 1 (U-2932 cells; AKT2 S126): 1.09
- Tirabrutinib/ctrl. rep. 2 (U-2932 cells; AKT2 S126): 0.97
- Tirabrutinib/ctrl. rep. 1 (U-2932 cells; ATF2 S90): 0.87
- Tirabrutinib/ctrl. rep. 2 (U-2932 cells; ATF2 S90): 0.93
- Tirabrutinib/ctrl. rep. 1 (U-2932 cells; ATF2 S112): 1.02
- Tirabrutinib/ctrl. rep. 2 (U-2932 cells; ATF2 S112): 1.00
- Tirabrutinib/ctrl. rep. 1 (U-2932 cells; ATF2 T71): 0.99
- Tirabrutinib/ctrl. rep. 2 (U-2932 cells; ATF2 T71): 0.86
- Tirabrutinib/ctrl. rep. 1 (U-2932 cells; ATF2 T73): 0.69
- Tirabrutinib/ctrl. rep. 2 (U-2932 cells; CARD11 S483): 1.78
- Tirabrutinib/ctrl. rep. 1 (U-2932 cells; CARD11 S610): 0.99
- Tirabrutinib/ctrl. rep. 2 (U-2932 cells; CARD11 S610): 0.96
- Tirabrutinib/ctrl. rep. 1 (U-2932 cells; CARD11 S903): 1.10
- Tirabrutinib/ctrl. rep. 2 (U-2932 cells; CARD11 S903): 1.31
- Tirabrutinib/ctrl. rep. 1 (U-2932 cells; CARD11 S910): 1.78
- Tirabrutinib/ctrl. rep. 2 (U-2932 cells; CARD11 S910): 0.95
- Tirabrutinib/ctrl. rep. 1 (U-2932 cells; CARD11 S942): 0.96
- Tirabrutinib/ctrl. rep. 2 (U-2932 cells; CARD11 S942): 0.97
- Tirabrutinib/ctrl. rep. 1 (U-2932 cells; ERF S21): 0.26
- Tirabrutinib/ctrl. rep. 1 (U-2932 cells; HSP27 S78): 1.14
- Tirabrutinib/ctrl. rep. 2 (U-2932 cells; HSP27 S78): 0.79
- Tirabrutinib/ctrl. rep. 1 (U-2932 cells; HSP27 S82): 1.09
- Tirabrutinib/ctrl. rep. 2 (U-2932 cells; HSP27 S82): 0.76
- Tirabrutinib/ctrl. rep. 1 (U-2932 cells; HSP27 S86): 0.81
- Tirabrutinib/ctrl. rep. 2 (U-2932 cells; HSP27 S86): 1.16
- Tirabrutinib/ctrl. rep. 1 (U-2932 cells; IKBKB S550): 0.86
- Tirabrutinib/ctrl. rep. 2 (U-2932 cells; IKBKB S550): 0.97
- Tirabrutinib/ctrl. rep. 1 (U-2932 cells; IKBKB S672): 1.04
- Tirabrutinib/ctrl. rep. 2 (U-2932 cells; IKBKB S672): 1.20
- Tirabrutinib/ctrl. rep. 1 (U-2932 cells; IKBKG S455): 1.15
- Tirabrutinib/ctrl. rep. 2 (U-2932 cells; IKBKG S455): 0.87
- Regulation of Phosphorylation Site (U-2932 cells; MAPK1 T185): ↓
- Tirabrutinib/ctrl. rep. 1 (U-2932 cells; MAPK1 T185): 0.23
- Tirabrutinib/ctrl. rep. 2 (U-2932 cells; MAPK1 T185): 0.41
- Regulation of Phosphorylation Site (U-2932 cells; MAPK1 Y187): ↓
- Tirabrutinib/ctrl. rep. 1 (U-2932 cells; MAPK1 Y187): 0.23
- Tirabrutinib/ctrl. rep. 2 (U-2932 cells; MAPK1 Y187): 0.41
- Tirabrutinib/ctrl. rep. 1 (U-2932 cells; NHE1 S602): 0.96
- Tirabrutinib/ctrl. rep. 2 (U-2932 cells; NHE1 S602): 0.92
- Tirabrutinib/ctrl. rep. 1 (U-2932 cells; NHE1 S605): 0.95
- Tirabrutinib/ctrl. rep. 2 (U-2932 cells; NHE1 S605): 0.92
- Tirabrutinib/ctrl. rep. 1 (U-2932 cells; NHE1 S785): 1.08
- Tirabrutinib/ctrl. rep. 2 (U-2932 cells; NHE1 S785): 1.26
- Tirabrutinib/ctrl. rep. 1 (U-2932 cells; NHE1 S796): 0.80
- Tirabrutinib/ctrl. rep. 2 (U-2932 cells; NHE1 S796): 0.78
- Tirabrutinib/ctrl. rep. 1 (U-2932 cells; PEA15 S82): 0.89
- Tirabrutinib/ctrl. rep. 2 (U-2932 cells; PEA15 S82): 0.86
- Tirabrutinib/ctrl. rep. 1 (U-2932 cells; PEA15 S137): 1.18
- Tirabrutinib/ctrl. rep. 2 (U-2932 cells; PEA15 S137): 1.03
- Tirabrutinib/ctrl. rep. 1 (U-2932 cells; PIK3AP1 S642): 1.22
- Tirabrutinib/ctrl. rep. 2 (U-2932 cells; PIK3AP1 S642): 0.88
- Tirabrutinib/ctrl. rep. 1 (U-2932 cells; PIK3AP1 T151): 1.02
- Tirabrutinib/ctrl. rep. 2 (U-2932 cells; PIK3AP1 T151): 1.07
- Tirabrutinib/ctrl. rep. 1 (U-2932 cells; PLCG2 S341): 0.84
- Tirabrutinib/ctrl. rep. 2 (U-2932 cells; PLCG2 S341): 1.25
- Tirabrutinib/ctrl. rep. 1 (U-2932 cells; PLCG2 S871): 0.99
- Tirabrutinib/ctrl. rep. 2 (U-2932 cells; PLCG2 S871): 0.98
- Tirabrutinib/ctrl. rep. 1 (U-2932 cells; PLCG2 S1236): 1.17
- Tirabrutinib/ctrl. rep. 2 (U-2932 cells; PLCG2 S1236): 0.99
- Tirabrutinib/ctrl. rep. 1 (U-2932 cells; PRKCB T497): 0.99
- Tirabrutinib/ctrl. rep. 2 (U-2932 cells; PRKCB T497): 1.00
- Tirabrutinib/ctrl. rep. 1 (U-2932 cells; PRKCB T500): 0.99
- Tirabrutinib/ctrl. rep. 2 (U-2932 cells; PRKCB T500): 1.00
- Tirabrutinib/ctrl. rep. 1 (U-2932 cells; PRKCB T641): 1.02
- Tirabrutinib/ctrl. rep. 2 (U-2932 cells; PRKCB T641): 1.00
- Tirabrutinib/ctrl. rep. 1 (U-2932 cells; PRKD2 S189): 0.90
- Tirabrutinib/ctrl. rep. 2 (U-2932 cells; PRKD2 S189): 0.70
- Tirabrutinib/ctrl. rep. 1 (U-2932 cells; PRKD2 S206): 0.86
- Tirabrutinib/ctrl. rep. 2 (U-2932 cells; PRKD2 S206): 0.83
- Tirabrutinib/ctrl. rep. 1 (U-2932 cells; PRKD2 S375): 0.91
- Tirabrutinib/ctrl. rep. 2 (U-2932 cells; PRKD2 S375): 0.81
- Tirabrutinib/ctrl. rep. 1 (U-2932 cells; PRKD2 S706): 0.77
- Tirabrutinib/ctrl. rep. 2 (U-2932 cells; PRKD2 S706): 0.50
- Tirabrutinib/ctrl. rep. 1 (U-2932 cells; PRKD2 S710): 0.90
- Tirabrutinib/ctrl. rep. 2 (U-2932 cells; PRKD2 S710): 0.77
- Tirabrutinib/ctrl. rep. 2 (U-2932 cells; PRKD3 S6): 0.88
- Tirabrutinib/ctrl. rep. 2 (U-2932 cells; PRKD3 S27): 0.99
- Tirabrutinib/ctrl. rep. 1 (U-2932 cells; PRKD3 S30): 0.97
- Tirabrutinib/ctrl. rep. 1 (U-2932 cells; PRKD3 S31): 0.99
- Tirabrutinib/ctrl. rep. 2 (U-2932 cells; PRKD3 S31): 0.97
- Tirabrutinib/ctrl. rep. 1 (U-2932 cells; PRKD3 S44): 1.09
- Tirabrutinib/ctrl. rep. 2 (U-2932 cells; PRKD3 S44): 1.04
- Tirabrutinib/ctrl. rep. 1 (U-2932 cells; PRKD3 S213): 1.29
- Tirabrutinib/ctrl. rep. 2 (U-2932 cells; PRKD3 S213): 1.25
- Tirabrutinib/ctrl. rep. 2 (U-2932 cells; PRKD3 S364): 1.20
- Tirabrutinib/ctrl. rep. 1 (U-2932 cells; PRKD3 S376): 0.80
- Tirabrutinib/ctrl. rep. 2 (U-2932 cells; PRKD3 S376): 0.94
- Tirabrutinib/ctrl. rep. 1 (U-2932 cells; PRKD3 S391): 0.99
- Tirabrutinib/ctrl. rep. 2 (U-2932 cells; PRKD3 S391): 0.97
- Tirabrutinib/ctrl. rep. 2 (U-2932 cells; PRKD3 S543): 1.05
- Tirabrutinib/ctrl. rep. 1 (U-2932 cells; PRKD3 S731): 0.72
- Tirabrutinib/ctrl. rep. 2 (U-2932 cells; PRKD3 S731): 0.48
- Tirabrutinib/ctrl. rep. 1 (U-2932 cells; PRKD3 S735): 0.85
- Tirabrutinib/ctrl. rep. 2 (U-2932 cells; PRKD3 S735): 0.77
- Tirabrutinib/ctrl. rep. 1 (U-2932 cells; RAF1 S12): 1.45
- Tirabrutinib/ctrl. rep. 2 (U-2932 cells; RAF1 S12): 0.88
- Tirabrutinib/ctrl. rep. 2 (U-2932 cells; RAF1 S316): 0.94
- Tirabrutinib/ctrl. rep. 1 (U-2932 cells; RAF1 S377): 0.98
- Tirabrutinib/ctrl. rep. 2 (U-2932 cells; RAF1 S377): 1.08
- Tirabrutinib/ctrl. rep. 1 (U-2932 cells; RAF1 S641): 1.04
- Tirabrutinib/ctrl. rep. 2 (U-2932 cells; RAF1 S641): 0.98
- Tirabrutinib/ctrl. rep. 2 (U-2932 cells; RAF1 T661): 0.73
- Tirabrutinib/ctrl. rep. 1 (U-2932 cells; RELA S238): 1.26
- Tirabrutinib/ctrl. rep. 2 (U-2932 cells; RELA S238): 0.86
- Tirabrutinib/ctrl. rep. 1 (U-2932 cells; RPS6KA1 S230): 0.99
- Tirabrutinib/ctrl. rep. 2 (U-2932 cells; RPS6KA1 S230): 0.99
- Tirabrutinib/ctrl. rep. 1 (U-2932 cells; RPS6KA1 S389): 1.55
- Tirabrutinib/ctrl. rep. 2 (U-2932 cells; RPS6KA1 S389): 1.00
- Tirabrutinib/ctrl. rep. 1 (U-2932 cells; RPS6KA1 S741): 1.16
- Tirabrutinib/ctrl. rep. 2 (U-2932 cells; RPS6KA1 S741): 0.87
- Tirabrutinib/ctrl. rep. 1 (U-2932 cells; TSC2 S1132): 1.15
- Tirabrutinib/ctrl. rep. 2 (U-2932 cells; TSC2 S1132): 0.89
- Tirabrutinib/ctrl. rep. 1 (U-2932 cells; TSC2 S1254): 0.44
- Tirabrutinib/ctrl. rep. 2 (U-2932 cells; TSC2 S1254): 0.70
- Tirabrutinib/ctrl. rep. 1 (U-2932 cells; TSC2 S1336): 1.59
- Tirabrutinib/ctrl. rep. 2 (U-2932 cells; TSC2 S1336): 1.33
- Tirabrutinib/ctrl. rep. 1 (U-2932 cells; TSC2 S1346): 1.14
- Tirabrutinib/ctrl. rep. 2 (U-2932 cells; TSC2 S1346): 1.02
- Tirabrutinib/ctrl. rep. 1 (U-2932 cells; TSC2 S1364): 0.82
- Tirabrutinib/ctrl. rep. 2 (U-2932 cells; TSC2 S1364): 0.98
- Tirabrutinib/ctrl. rep. 1 (U-2932 cells; TSC2 S1385): 1.01
- Tirabrutinib/ctrl. rep. 2 (U-2932 cells; TSC2 S1385): 1.30
- Tirabrutinib/ctrl. rep. 1 (U-2932 cells; TSC2 S1411): 0.93
- Tirabrutinib/ctrl. rep. 2 (U-2932 cells; TSC2 S1411): 0.98
- Tirabrutinib/ctrl. rep. 2 (U-2932 cells; TSC2 S1420): 0.93
- Tirabrutinib/ctrl. rep. 2 (U-2932 cells; TSC2 S1448): 1.43
- Tirabrutinib/ctrl. rep. 1 (U-2932 cells; TSC2 S1449): 1.16
- Tirabrutinib/ctrl. rep. 1 (U-2932 cells; TSC2 S1452): 1.16
- Tirabrutinib/ctrl. rep. 2 (U-2932 cells; TSC2 S1452): 1.04
- Tirabrutinib/ctrl. rep. 1 (U-2932 cells; TSC2 S1798): 0.76
- Tirabrutinib/ctrl. rep. 2 (U-2932 cells; TSC2 S1798): 0.73
- Tirabrutinib/ctrl. rep. 2 (U-2932 cells; YBX1 S2): 0.99
- Tirabrutinib/ctrl. rep. 2 (U-2932 cells; YBX1 S3): 0.99
- Tirabrutinib/ctrl. rep. 1 (U-2932 cells; YBX1 S165): 0.98
- Tirabrutinib/ctrl. rep. 2 (U-2932 cells; YBX1 S165): 0.91
- Tirabrutinib/ctrl. rep. 1 (U-2932 cells; YBX1 S167): 0.91
- Tirabrutinib/ctrl. rep. 2 (U-2932 cells; YBX1 S167): 1.13
- inhibition at 0.3 µM (RIPK2): 67%
